Results: patent US10421761B2, “Compounds for kinase modulation, and indications therefor” (Plexxikon Inc., priority 2013, dated 2019)

System: B9 cells
Conditions: Repl. 2; B9 cells

CCCS(=O)(=O)Nc1ccc(F)c(C(=O)c2c[nH]c3ncc(-c4ccc(Cl)cc4)cc23)c1F [vemurafenib]
probe 1430623_s_at response, Obfc2a (oligonucleotide/oligosaccharide-binding fold containing 2A): 1.88 | probe 1430700_a_at response, Pla2g7 (phospholipase A2, group VII (platelet-activating factor acetylhydrolase, plasma)): 2.18 | probe 1431416_a_at response, Jam2 (junction adhesion molecule 2): 1.93 | probe 1431422_a_at response, Dusp14 (dual specificity phosphatase 14): 1.93 | probe 1431611_a_at response, Cadm1 (cell adhesion molecule 1): 2.31 | probe 1431688_at response, LOC73899 (hypothetical LOC73899): 2.41 | probe 1431691_a_at response, Rab31 (RAB31, member RAS oncogene family): 2.04 | probe 1433909_at response, Syt17 (synaptotagmin XVII): 2.17 | probe 1434059_at response, B230312A22Rik (RIKEN cDNA B230312A22 gene): 2.10 | probe 1434092_at response, Atg9b (ATG9 autophagy related 9 homolog B (S. cerevisiae)): 1.89 | probe 1434109_at response, Sh3bgrl2 (SH3 domain binding glutamic acid-rich protein like 2): 2.33 | probe 1434252_at response, Tmcc3 (transmembrane and coiled coil domains 3): 1.95 | probe 1434601_at response, Amigo2 (adhesion molecule with Ig like domain 2): 1.89 | probe 1434957_at response, Cdon (cell adhesion molecule-related/down-regulated by oncogenes): 0.46 | probe 1435066_at response, Pitpnc1 (phosphatidylinositol transfer protein, cytoplasmic 1): 2.32 | probe 1435176_a_at response, Id2 (inhibitor of DNA binding 2): 0.46 | probe 1435330_at response, Pyhin1 (pyrin and HIN domain family, member 1): 2.38 | probe 1435331_at response, Pyhin1 (pyrin and HIN domain family, member 1): 3.71 | probe 1435460_at response, Prkg2 (protein kinase, cGMP-dependent, type II): 1.96 | probe 1435695_a_at response, Ggct (gamma-glutamyl cyclotransferase): 2.19 | probe 1436100_at response, Sh2d5 (SH2 domain containing 5): 2.35 | probe 1436329_at response, Egr3 (early growth response 3): 2.77 | probe 1436584_at response, Spry2 (sprouty homolog 2 (Drosophila)): 3.54 | probe 1436659_at response, Dclk1 (doublecortin-like kinase 1): 2.37 | probe 1436917_s_at response, Gpsm1 (G-protein signalling modulator 1 (AGS3-like, C. elegans)): 1.89 | probe 1436944_x_at response, Pisd /// Pisd-ps1 ///Pisd-ps3 (phosphatidylserine decarboxylase /// phosphatidylserine decarboxylase, pseudogene 1 /// phosphatidylserine decarboxylase, pseudogene 3): 0.48 | probe 1437092_at response, Clip4 (CAP-GLY domain containing linker protein family, member 4): 2.13 | probe 1437100_x_at response, Pim3 (proviral integration site 3): 2.05 | probe 1437199_at response: 4.31 | probe 1437271_at response, Clcf1 (cardiotrophin-like cytokine factor 1): 1.96 | probe 1437486_at response, Gprc5a (G protein-coupled receptor, family C, group 5, member A): 2.08 | probe 1437982_x_at response, Cox15 (COX15 homolog, cytochrome c oxidase assembly protein (yeast)): 0.45 | probe 1438038_at response, 4930402H24Rik (RIKEN cDNA 4930402H24 gene): 1.93 | probe 1438664_at response, Prkar2b (protein kinase, cAMP dependent regulatory, type II beta): 0.49 | probe 1438699_at response, Srd5a1 (steroid 5 alpha-reductase 1): 1.87 | probe 1439016_x_at response, Sprr2a (small proline-rich protein 2A): 0.42 | probe 1439109_at response, Ccdc68 (coiled-coil domain containing 68): 0.50 | probe 1439434_x_at response, Sh2d5 (SH2 domain containing 5): 1.91 | probe 1439797_at response, Ppard (peroxisome proliferator activator receptor delta): 2.32 | probe 1439878_at response, Ivl (involucrin): 2.90 | probe 1440169_x_at response, Ifnar2 (interferon (alpha and beta) receptor 2): 0.53 | probe 1440559_at response, Hmga2-ps1 (high mobility group AT-hook 2, pseudogene 1): 2.95 | probe 1441315_s_at response, Slc19a2 (solute carrier family 19 (thiamine transporter), member 2): 2.18 | probe 1441917_s_at response, Tmem40 (transmembrane protein 40): 2.11 | probe 1442350_at response: 2.13 | probe 1442363_at response, 1110012J17Rik (RIKEN cDNA 1110012J17 gene): 1.96 | probe 1443536_at response, Slc7a11 (solute carrier family 7 (cationic amino acid transporter, y+ system), member 11): 0.40 | probe 1445758_at response: 0.52 | probe 1446791_at response, Pi15 (peptidase inhibitor 15): 0.48 | probe 1447661_at response: 0.43 | probe 1447845_s_at response, Vnn1 (vanin 1): 0.46 | probe 1448364_at response, Ccng2 (cyclin G2): 2.01 | probe 1448532_at response, Prl8a9 (prolactin family8, subfamily a, member 9): 2.67 | probe 1448562_at response, Upp1 (uridine phosphorylase 1): 2.99 | probe 1448613_at response, Ecm1 (extracellular matrix protein 1): 1.89 | probe 1448617_at response, Cd53 (CD53 antigen): 1.99 | probe 1448810_at response, Gne (glucosamine): 2.16 | probe 1448855_at response, Rassf1 (Ras association (RalGDS/AF-6) domain family member 1): 2.05 | probe 1448894_at response, Akr1b8 (aldo-keto reductase family 1, member B8): 1.99 | probe 1448978_at response, Ngef (neuronal guanine nucleotide exchange factor): 3.24 | probe 1449038_at response, Hsd11b1 (hydroxysteroid 11-beta dehydrogenase 1): 2.51 | probe 1449125_at response, Tnfaip8l1 (tumor necrosis factor, alpha-induced protein 8-like 1): 2.10 | probe 1449133_at response, Sprr1a (small proline-rich protein 1A): 2.78 | probe 1449268_at response, Gfpt1 (glutamine fructose-6-phosphate transaminase 1): 2.36 | probe 1449297_at response, Casp12 (caspase 12): 0.47 | probe 1449334_at response, Timp3 (tissue inhibitor of metalloproteinase 3): 0.42 | probe 1449367_at response, Trex2 (three prime repair exonuclease 2): 4.68 | probe 1449408_at response, Jam2 (junction adhesion molecule 2): 2.08 | probe 1449545_at response, Fgf18 (fibroblast growth factor 18): 3.38 | probe 1449965_at response, Mcpt8 (mast cell protease 8): 2.61 | probe 1450241_a_at response, Evi2a (ecotropic viral integration site 2a): 4.27 | probe 1450262_at response, Clcf1 (cardiotrophin-like cytokine factor 1): 2.12 | probe 1450276_a_at response, Scin (scinderin): 2.63 | probe 1450376_at response, Mxi1 (Max interacting protein 1): 2.00 | probe 1450430_at response, Mrc1 (mannose receptor, C type 1): 2.97 | probe 1450501_at response, Itga2 (integrin alpha 2): 2.48 | probe 1450791_at response, Nppb (natriuretic peptide precursor type B): 4.39 | probe 1450976_at response, Ndrg1 (N-myc downstream regulated gene 1): 2.47 | probe 1451006_at response, Xdh (xanthine dehydrogenase): 0.39 | probe 1451308_at response, Elovl4 (elongation of very long chain fatty acids (FEN1/Elo2, SUR4/Elo3, yeast)-like 4): 2.21 | probe 1451446_at response, Antxr1 (anthrax toxin receptor 1): 0.43 | probe 1451501_a_at response, Ghr (growth hormone receptor): 2.25 | probe 1451529_at response, Sgtb (small glutamine-rich tetratricopeptide repeat (TPR)-containing, beta): 2.47 | probe 1451798_at response, Il1rn (interleukin 1 receptor antagonist): 2.76 | probe 1452058_a_at response, Rnfl1 (ring finger protein 11): 2.02 | probe 1452087_at response, Epsti1 (epithelial stromal interaction 1 (breast)): 2.32 | probe 1452203_at response, Obfc2a (oligonucleotide/oligosaccharide-binding fold containing 2A): 1.90 | probe 1452352_at response, Ctla2b (cytotoxic T lymphocyte-associated protein 2 beta): 2.30 | probe 1452521_a_at response, Plaur (plasminogen activator, urokinase receptor): 2.09 | probe 1453055_at response, Sema6d (sema domain, transmembrane domain (TM), and cytoplasmic domain, (semaphorin) 6D): 4.08 | probe 1453278_a_at response, Clip4 (CAP-GLY domain containing linker protein family, member 4): 1.99 | probe 1453345_at response, Nipal1 (NIPA-like domain containing 1): 3.92 | probe 1454048_a_at response, 4931408A02Rik /// LOC630876 (RIKEN cDNA 4931408A02 gene /// similar to Protein C21orf63 homolog precursor): 0.46 | probe 1454254_s_at response, 1600029D21Rik (RIKEN cDNA 1600029D21 gene): 2.18 | probe 1454649_at response, Srd5a1 (steroid 5 alpha-reductase 1): 2.08 | probe 1454699_at response, LOC100047324 /// Sesn1 (similar to Sesn1 protein /// sestrin 1): 0.37 | probe 1454710_at response, Spink2 (serine peptidase inhibitor, Kazal type 2): 2.03 | probe 1454780_at response, Galntl4 (UDP-N-acetyl-alpha-D-galactosamine:polypeptide N-acetylgalactosaminyltransferase-like 4): 0.44 | probe 1454877_at response, Sertad4 (SERTA domain containing 4): 0.42 | probe 1455104_at response, Mxd1 (MAX dimerization protein 1): 2.85 | probe 1455241_at response, BC037703 (cDNA sequence BC037703): 0.50 | probe 1455299_at response, Vgll3 (vestigial like 3 (Drosophila)): 0.44 | probe 1455981_at response, Gm11263 /// Gm12242 /// Gm13654 /// Gm14138 /// Gm16406 /// Gm4796 /// Gm6476 /// Gm9143 /// LOC100043734 /// LOC236932 /// LOC623245 /// LOC639593 /// Rps6: 0.46 | probe 1456150_at response, Jhdm1d (jumonji C domain-containing histone demethylase 1 homolog D (S. cerevisiae)): 1.99 | probe 1456174_x_at response, Ndrg1 (N-myc downstream regulated gene 1): 2.00 | probe 1456248_at response, Lce3f /// LOC630971 (late cornified envelope 3F /// hypothetical protein LOC630971): 2.45 | probe 1456284_at response, Tmem171 (transmembrane protein 171): 1.95 | probe 1456321_at response, Nipal1 (NIPA-like domain containing 1): 2.99 | probe 1456725_x_at response, Ezr (ezrin): 0.49 | probe 1456874_at response, Flrt2 (fibronectin leucine rich transmembrane protein 2): 0.54 | probe 1457042_at response, AI256396 (EST AI256396): 0.52 | probe 1457568_at response, Hnrnpd (heterogeneous nuclear ribonucleoprotein D): 0.50 | probe 1457666_s_at response, Ifi202b (interferon activated gene 202B): 3.89 | probe 1460220_a_at response, Csf1 (colony stimulating factor 1 (macrophage)): 0.38 | probe 1460302_at response, Thbs1 (thrombospondin 1): 0.50 | probe 1460472_at response, Cdk3 (cyclin-dependent kinase 3): 1.99 | probe 1460521_a_at response, Obfc2a (oligonucleotide/oligosaccharide-binding fold containing 2A): 2.32 | probe 1460695_a_at response, 2010111I01Rik (RIKEN cDNA 2010111I01 gene): 0.48
